Entries after “also recorded” stand apart in the source; their conditions may differ. Structures can show the parent of a compound that is named as a salt.
Test system: HeLa human cervical carcinoma cells
Assay: High-content analysis of mitotic arrest in HeLa cells
Format: cell-based
Settings: for Microtubule Density MDEC (minimum detectable effective concentration) / Mitotic Index MDEC (percentage of phosphohistone H3-positive cells) / Nuclear Condensation MDEC (minimum detectable effective concentration) / EC50: 20 hours treatment, average of four experiments ± SD; for EC50: Homo sapiens, read-out: Cell Density EC50; for activity in high-content analysis of mitotic arrest (in words): all endpoints measured
Description: The effects of tubulysin analogs on mitotic arrest and cellular microtubules were studied. HeLa human cervical carcinoma cells (10,000 per well) were plated in collagen-1 coated 384-well microplates and were treated with vehicle (DMSO) or ten two-fold concentration gradients of test agents within 4-6 hours of seeding. Cells were incubated for 20 hours at 37° C., fixed with formaldehyde, and labeled with 10 μg/mL Hoechst 33342 in Hank's balanced salt solution (HBSS). Cells were permeabilized with 0.5% (w/w) Triton X-100 for 5 min at room temperature and incubated with a primary antibody cocktail consisting of an HBSS solution containing rabbit polyclonal anti-phosphohistone H3 (Ser10, 1:500, Upstate), and mouse monoclonal anti-α-tubulin (1:3000, Sigma), followed by a mixture of FITC-labeled donkey anti-mouse IgG (1:500) and Cy3-labeled donkey anti-rabbit IgG (1:500). Cells were rinsed once with HBSS and stored at 4° C. in HBSS until analysis.
Microplates were analyzed with an ArrayScanII instrument (Cellomics, Pittsburgh, Pa.) using the Target Activation Bioapplication (Cellomics, Inc.). Within the application, 1,000 individual cells in each well were imaged at three different wavelengths, using an Omega XF93 filter set at excitation/emission wavelengths of 350/461 nm (Hoechst), 494/519 nm (FITC), and 556/573 nm (Cy3). The following parameters were used for data analysis: average nuclear intensity, nuclei per field, average nuclear FITC intensity, and average nuclear Cy3 intensity. A nuclear mask was generated from Hoechst 33342-stained nuclei. Microtubule density and histone H3 phosphorylation were measured in the FITC and Cy3 channel, respectively. Microtubule density was defined as the average green (FITC) pixel intensity in an area defined by the nuclear mask. For determination of mitotic index and nuclear condensation, thresholds for Hoechst 33342 and phosphohistone-H3 intensities were defined as the average Hoechst 33342 or Cy3 intensity plus one standard deviation from twenty-eight vehicle-treated wells placed in the center of the microplate.
Cells were classified as positive if their average Hoechst 33342 or Cy3 intensity exceeded this threshold. To illustrate visually the effects of test agents on cellular microtubules and mitotic arrest, the identical 384-well plates then were used to acquire higher resolution images of selected wells.
Asynchronously growing HeLa cells were treated for 20 hours with each compound in collagen-coated 384 well microplates, fixed, and incubated with primary antibodies for tubulin and the mitotic marker protein phosphohistone H3, followed by FITC and Cy3-conjugated secondary antibodies, respectively. Cells were detected by nuclear counterstaining with Hoechst 33342, which also provided information about chromatin condensation and cell density as markers of cell death.

SMILES | Microtubule Density MDEC (minimum detectable effective concentration) [nM] | Mitotic Index MDEC (percentage of phosphohistone H3-positive cells) [nM] | Nuclear Condensation MDEC (minimum detectable effective concentration) [nM] | EC50 [nM] | activity in high-content analysis of mitotic arrest (in words) (trifluoroacetic acid salt) | potency relative to paclitaxel, vincristine, or WZY-III-69A (all of the endpoints measured) [fold] | activity in high-content analysis of mitotic arrest (in words)
CCC(C)[C@H](NC(=O)[C@H]1CCCCN1C)C(=O)N(C)[C@H](C[C@@H](OC(C)=O)c1nc(C(=O)N[C@@H](Cc2ccccc2)C[C@H](C)C(=O)O)cs1)C(C)C (stereo partly shown) [WZY-III-63C, N^14-Desacetoxytubulysin H trifluoroacetic acid salt] | 0.16 ± 0.05 | 0.10 ± 0.02 | 0.13 ± 0.04 | 0.37 ± 0.09 | active in the picomolar range; also recorded: almost two orders of magnitude more potent than vincristine or paclitaxel; also recorded: activity in the picomolar range | ~50 | –
CCC(C)[C@H](NC(=O)CN(C)C)C(=O)N(C)[C@H](C[C@H](OC(C)=O)c1nc(C(=O)N[C@@H](Cc2ccccc2)C[C@H](C)C(=O)O)cs1)C(C)C (stereo partly drawn) [WZY-III-64A, (2S,4R)-4-(2-((6S,9R,11S)-6-sec-Butyl-9-isopropyl-2,8-dimethyl-4,7,13-trioxo-12-oxa-2,5,8-triazatetradecan-11-yl)thiazole-4-carboxamido)-2-methyl-5-phenylpentanoic acid] | 56.6 ± 30.9 | 23.9 ± 5.8 | 32.4 ± 8.6 | 95.7 ± 20.8 | – | – | about five-fold less active
CCC(C)[C@H](NC(=O)CN(C)C)C(=O)N(C)[C@H](C[C@@H](OC(C)=O)c1nc(C(=O)N[C@@H](Cc2ccccc2)C[C@H](C)C(=O)O)cs1)C(C)C (stereo partly drawn) [WZY-III-69A, (2S,4R)-4-(2-((6S,9R,11R)-6-sec-Butyl-9-iso-propyl-2,8-dimethyl-4,7,13-trioxo-12-oxa-2,5,8-triazatetradecan-11-yl)thiazole-4-carboxamido)-2-methyl-5-phenylpentanoic acid] | 15.1 ± 11.1 | 2.5 ± 0.4 | 12.4 ± 10.2 | 17.5 ± 6.6 | – | – | as active as paclitaxel or vincristine
